# Tests used:
# [1] = tested on: CA3-CA1 connections in hippocampal slices; experiment: Electrophysiology in Wt hippocampal slices (fEPSP, PPF, LTP, LTD); type: cell-based, mice; settings: hippocampal slices; 6-BIO 10 nM
# Method: Slice Preparation and Electrophysiology. […] Slices were transferred to an experimental chamber (2 ml), superfused (3 ml/min, at 20-22° C.) with gassed ACSF and visualized by trans-illumination with a binocular microscope (MSZ-10, Nikon, Melville, N.Y.). To evoke field excitatory postsynaptic potentials (fEPSPs), we stimulate with bipolar concentric electrodes (Platinum/Iridium, 125 μm OD diameter, FHC Inc., Bowdoin, Me.) generated by a stimulator (Axon 700b, Molecular Devices, Sunnyvale, Calif.) and connected to an isolation unit (Isoflex, AMPI, Jerusalem, Israel) . The stimulation was in the Stratum Radiatum within 100-200 μm from the recording site. The paired pulse facilitation index was calculated by ((R2−R1)/R1), where R1 and R2 were the peak amplitudes of the first and second fEPSP respectively. To generate LTP we used Theta Burst Stimulation (TBS) consisting of 5 trains of stimulus with an inter-train interval of 20 s. Each train consisted of 10 bursts at 5 Hz and each burst having 4 pulses at 100 Hz. To generate LTD we used Low Frequency Stimulation (LFS) consisting in 900 paired pulses at 1 Hz. Recordings were filtered at 2.0-3.0 kHz, sampled at 4.0 kHz using an A/D converter, and stored with pClamp 10 (Molecular Devices). Evoked postsynaptic responses were analyzed off-line, using an analysis software (pClampfit, Molecular Devices), which allowed visual detection of events, computing only those events that exceeded and arbitrary threshold.
# Wnt target genes = experiment: PCR array of Wnt target genes in hippocampal neurons; type: cell-based, rat
# Method: Primary culture of rat hippocampal neurons. […] PCR-ARRAY. RNA from hippocampal neurons was extracted using Trizol. Quantification and purity of RNA preparations were checked by absorbance using Nanodrop ND-2000. Only preparations with a 260/280 nm ratio≥1.8, a 260/230 nm ratio ≥1,7 and no sign of RNA degradations, verified by agarose gel electrophoresis with Gel Red TM were used. Genomic DNA was degraded. Using RT2First-Strand cDNA Synthesis kit (SuperArray), 1 μg total RNA was reverse transcribed and then real-time PCR was performed by adding cDNA directly to PCR Master Mix, containing SYBR Green and ROX. The mixtures were then aliquoted into a 96-well PCR array plates, which profiles the expression of 84 Wnt target genes from rat. The PCR was run on ABI StepOnePlus, with 1 cycle of 10 min at 95° C. followed by 40 cycles of 15 s at 95° C. and 1 min at 60° C.
# Treatment of neuronal cultures. Primary hippocampal cultures of neurons 14 DIV were washed twice in neurobasal medium and maintained for 1 hour.
# [2] = tested on: Wnt/β-catenin pathway in hippocampal slices; experiment: β-catenin, GSK-3β and Dvl-3 western blot in hippocampal slices of wild-type mice; type: cell-based; settings: for time at which total levels of β-catenin increased: 5 μM ANDRO, Wnt3a conditioned medium or 10 nM 6-BIO, up to 1 h
# Method: Slice preparation. […] Transverse slices (250-300 μm) from the dorsal hippocampus were cut under oxygen-saturated cold artificial cerebrospinal fluid using a Vibroslice microtome (VSL, World Precision Instruments, Inc WPI, Sarasota, Fla.). After obtained, slices were incubated in ACSF for at least than one hour at room temperature, in order to stabilize activity.
# Immunoblotting. […] Briefly, tissues were homogenized in RIPA buffer (10 mM Tris-Cl, pH 7.4, EDTA 5 mM, 1% NP-40, 1% sodium deoxycholate, and 1% SDS) supplemented with a protease inhibitor mixture (1 mM PMSF, 2 μg/mL aprotinin, 1 μg/mL pepstatin and 10 μg/mL benzamidine) and phosphatase inhibitors (25 mMNaF, 100 mM Na3VO4, 1 mM EDTA and 30 μM Na4P207) using a Potter homogenizator and then passed sequentially through different caliber syringes. […] Protein concentration was determined using the BCA Protein Assay Kit (Pierce). […] The reactions were followed by incubation with anti-mouse, anti-goat or anti-rabbit IgG peroxidase conjugated (Pierce, Rockford, Ill.) and developed using an ECL kit (Western Lightning Plus ECL, PerkinElmer).
# HEK293T cells = experiment: TOP/FOP flash luciferase reporter assay; type: cell-based
# Method: Luciferase Assay. 150,000 HEK293T cells were seeded in triplicate per condition and kept for 24 hours at 37° C. with 5% CO2. The cultures were transfected with TOPflash or FOPflash (400 ng), which are firefly-luciferase reporter DNA constructs (Milipore), using LipofectAMINE 2000 (Invitrogen). To control for transfection pRL-TK (10 ng) was included in all transfections. […] Values were normalized by the renilla value from the same well. To statistically compare treatments ANOVA was used.
# [3] = 9 h treatment, of the 86 genes analyzed
Molecule,induction of LTD (fEPSP slope after LFS) [1],Cdh-1 gene expression (Wnt target genes),number of Wnt target genes specifically modulated (Wnt target genes; [3]) [genes],number of changed Wnt target genes shared by ANDRO and 6-BIO (Wnt target genes; [3]) [genes],time at which total levels of β-catenin increased [2] [min],rate of increase of GSK3β Ser-9 and decrease of Tyr-216 phosphorylation ([2]; compared to Wnt-3a treatment),"TOPflash reporter activity (HEK293T cells; ANDRO 10 μM or 6-BIO 10 nM, 24 h)","increase of luciferase reporter over control (HEK293T cells; TOPflash, HEK293T) [fold]",inhibition of β-catenin accumulation by Wnt antagonists sFRP and Dkk-1 ([2]; antagonists 15 min before 5 μM ANDRO or Wnt3a conditioned medium for 1 h)
"O=C1Nc2cc(Br)ccc2/C1=C1/Nc2ccccc2/C1=N\O [6-BIO, 6-bromoindirubin-3′-oxime, reference compound]",complete inhibition of the induction of LTD,does not,4,4,15,faster,significant increase,~6,
Wnt-3a,,,,,45,,,,able to inhibit the accumulation of β-catenin in the presence of Wnt3a

# Source: patent US20220409573A1, “Hippocampus Regeneration And Memory Recovery” (INNOBIOSCIENCE, LLC, priority 2021, published 2022)
